pKi: −log10 of the molar value.
Assays:
[1] = molecular target: Somatostatin receptor type 5 (Homo sapiens, UniProt P35346)
[2] = molecular target: Somatostatin receptor type 3 (Homo sapiens, UniProt P32745)
[3] = molecular target: Somatostatin receptor type 2 (Homo sapiens, UniProt P30874)
[4] = molecular target: Somatostatin receptor type 4 (Homo sapiens, UniProt P31391)
[5] = molecular target: Somatostatin receptor type 1 (Homo sapiens, UniProt P30872)
Chain of Somatostatin receptor type 1 (P30872 whole entry): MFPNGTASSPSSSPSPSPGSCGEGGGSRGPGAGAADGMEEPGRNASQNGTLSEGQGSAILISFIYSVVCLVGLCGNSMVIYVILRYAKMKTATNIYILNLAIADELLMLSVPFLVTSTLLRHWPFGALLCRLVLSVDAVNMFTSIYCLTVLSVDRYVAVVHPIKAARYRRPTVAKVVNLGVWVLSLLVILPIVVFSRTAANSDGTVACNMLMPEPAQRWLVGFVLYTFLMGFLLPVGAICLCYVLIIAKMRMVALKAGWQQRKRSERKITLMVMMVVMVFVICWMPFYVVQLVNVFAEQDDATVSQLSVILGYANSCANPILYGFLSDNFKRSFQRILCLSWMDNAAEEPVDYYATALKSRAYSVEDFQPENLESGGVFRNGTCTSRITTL

Chain of Somatostatin receptor type 3 (P32745 whole entry): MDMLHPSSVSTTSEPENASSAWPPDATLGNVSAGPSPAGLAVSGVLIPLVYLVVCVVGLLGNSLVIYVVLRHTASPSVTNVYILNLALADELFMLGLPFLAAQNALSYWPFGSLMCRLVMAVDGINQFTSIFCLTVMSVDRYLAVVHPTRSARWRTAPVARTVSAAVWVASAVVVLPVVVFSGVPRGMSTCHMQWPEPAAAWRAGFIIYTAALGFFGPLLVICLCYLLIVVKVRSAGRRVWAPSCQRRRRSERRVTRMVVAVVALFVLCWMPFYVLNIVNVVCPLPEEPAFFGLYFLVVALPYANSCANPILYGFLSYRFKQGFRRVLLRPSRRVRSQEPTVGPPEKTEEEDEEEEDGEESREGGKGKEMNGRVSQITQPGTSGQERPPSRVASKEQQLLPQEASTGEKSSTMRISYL
Chain of Somatostatin receptor type 5 (P35346 whole entry): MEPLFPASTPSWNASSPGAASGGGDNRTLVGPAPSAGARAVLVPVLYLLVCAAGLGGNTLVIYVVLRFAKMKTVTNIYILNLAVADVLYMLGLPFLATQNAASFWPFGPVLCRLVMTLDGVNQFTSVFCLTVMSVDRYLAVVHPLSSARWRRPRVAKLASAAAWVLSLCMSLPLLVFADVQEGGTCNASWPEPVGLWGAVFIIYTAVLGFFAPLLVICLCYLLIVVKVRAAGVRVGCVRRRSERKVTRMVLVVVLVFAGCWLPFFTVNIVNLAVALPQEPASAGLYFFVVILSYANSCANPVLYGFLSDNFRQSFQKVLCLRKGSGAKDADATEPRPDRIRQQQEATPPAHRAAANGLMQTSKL
Chain of Somatostatin receptor type 4 (P31391 whole entry): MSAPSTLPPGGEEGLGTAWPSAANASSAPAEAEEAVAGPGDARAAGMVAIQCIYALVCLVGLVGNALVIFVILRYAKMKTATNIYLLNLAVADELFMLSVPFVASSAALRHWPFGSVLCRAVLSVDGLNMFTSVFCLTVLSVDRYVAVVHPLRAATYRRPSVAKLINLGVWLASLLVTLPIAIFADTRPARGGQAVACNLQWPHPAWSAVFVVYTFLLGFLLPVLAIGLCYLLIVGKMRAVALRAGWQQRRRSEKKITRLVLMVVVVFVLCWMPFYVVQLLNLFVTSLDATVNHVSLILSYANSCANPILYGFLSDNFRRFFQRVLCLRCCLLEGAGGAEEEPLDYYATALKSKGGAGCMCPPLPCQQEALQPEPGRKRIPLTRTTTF
Chain of Somatostatin receptor type 2 (P30874 whole entry): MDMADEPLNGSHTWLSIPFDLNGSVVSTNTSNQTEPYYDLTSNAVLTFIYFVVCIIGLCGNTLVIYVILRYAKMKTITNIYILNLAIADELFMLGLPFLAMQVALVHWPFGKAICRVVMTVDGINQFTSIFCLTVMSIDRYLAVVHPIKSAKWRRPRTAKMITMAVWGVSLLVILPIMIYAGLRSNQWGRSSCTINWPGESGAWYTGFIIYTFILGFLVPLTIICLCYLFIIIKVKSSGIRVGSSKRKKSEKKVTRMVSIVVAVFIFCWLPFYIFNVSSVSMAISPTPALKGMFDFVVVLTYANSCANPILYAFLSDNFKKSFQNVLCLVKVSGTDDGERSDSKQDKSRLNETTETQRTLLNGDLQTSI

pKi [1] | pKi [2] | pKi [3] | pKi [4] | pKi [5] | Compound
6.79 | 7.51 | 11.00 | 7.09 |  | C[C@@H](c1c[nH]c2ccccc12)[C@@H](NC(=O)N1CCC(n2c(=O)[nH]c3ccccc32)CC1)C(=O)NC(CCCCN)C(=O)OC(C)(C)C (stereo partly drawn) [2-[[(2R,3S)-2-[[4-[(2-Oxo-2,3-dihydro-1H-benzimidazole)-1-yl]piperidino]carbonylamino]-3-(1H-indole-3-yl)butyryl]amino]-6-aminohexanoic acid tert-butyl ester]
5.70 | 5.51 | 9.31 | < 5.00 | 5.25 | CC(O)[C@H]1NC(=O)[C@@H](Cc2ccccc2)NC(=O)[C@H]2CCCN2C(=O)[C@H](Cc2ccc(O)cc2)NC(=O)[C@@H](Cc2c[nH]c3ccccc23)NC(=O)[C@@H](CCCCN)NC1=O (stereo partly drawn) [(5S,8R,11R,14R,17R,19aR)-11-(4-Amino-butyl)-17-benzyl-5-(4-hydroxy-benzyl)-14-(1-hydroxy-ethyl)-8-(1H-indol-3-ylmethyl)-tetradecahydro-3a,6,9,12,15,18-hexaaza-cyclopentacyclooctadecene-4,7,10,13,16,19-hexaone]
6.63 | 6.64 |  |  | < 5.00 | CC(C)[C@@H]1NC(=O)[C@H](CCCCN)NC(=O)[C@@H](Cc2c[nH]c3ccccc23)NC(=O)[C@H](Cc2ccc(O)cc2)NC(=O)[C@H](C)N(C)C(=O)[C@H](Cc2ccccc2)NC1=O [CAS_3086456]

Source: BindingDB's records for doi:10.1073/pnas.95.18.10836 (Merck Research Laboratories, 1998)
